Laboratory results taken from patent US20240279223A1, “5-OXO-PYRIDO[2,3-D]PYRIDAZIN-6(5H)-YL ACETAMIDES” (JANSSEN PHARMACEUTICA NV, priority 2021, published 2024).

What was measured:
TNF = assay: PBMC assay: TNF cytokine levels after LPS stimulation; assay type: cell-based; settings: human PBMCs, 30 min preincubation, 100 ng/ml LPS for 6 hrs, supernatant, MSD technology
Method: (§1) Peripheral venous blood was collected from healthy individuals and human peripheral blood mononuclear cells (PBMCs) were isolated from blood by Ficoll-Histopaque (Sigma-Aldrich, A0561) density gradient centrifugation. After isolation, PBMCs were stored in liquid nitrogen for later use. Upon thawing, PBMC cell viability was determined in growth medium (RPMI media supplemented with 10% fetal bovine serum, 1% Pen-Strep and 1% L-glutamine). Compounds were spotted in a 1:3 serial dilution in DMSO and diluted to the final concentration in 30 μl medium in 96 well plates (Falcon, 353072). PBMCs were added at a density of 7.5×10^4 cells per well and incubated for 30 min in a 5% CO2 incubator at 37° C. LPS stimulation was performed by addition of 100 ng/ml LPS (final concentration, Invivogen, tirl-smlps) for 6 hrs followed by collection of cellular supernatant and the analysis of IL-1β (μM) and TNF cytokines levels (μM) via MSD technology according to manufacturers' guidelines (MSD, K 151A0H).
(§2) The IC50 values (for IL-1β) and EC50 values (TNF) were obtained on compounds of the invention/examples, and are depicted in the following table: […]

IL-1β = assay: PBMC assay: IL-1β release after LPS stimulation; assay type: cell-based; settings: human PBMCs, 30 min preincubation, 100 ng/ml LPS for 6 hrs, supernatant, MSD technology
Method: as §1, §2

Row | EC50 (TNF; Homo sapiens, PBMC) [nM] | IC50 (IL-1β; Homo sapiens, PBMC) [nM] | EC50 (TNF) [nM] | IC50 (IL-1β) [nM] | Structure (SMILES)
1 | > 20000 | 320 | – | – | CN(C)c1nn(CC(=O)Nc2ccc3nncn3c2)c(=O)c2ccc(C(F)(F)F)nc12 [Compound 9]
2 | > 20000 | 50 | – | – | CC(C)c1nn(CC(=O)N[C@H]2C[C@@](C)(O)C2)c(=O)c2ccc(C(F)(F)F)nc12 [Compound 14]
3 | > 20000 | 780 | – | – | CC(C)c1nn(CC(=O)NC2CCOCC2)c(=O)c2ccc(C(F)(F)F)nc12 [Compound 12]
4 | > 20000 | 330 | – | – | CC(C)c1nn(CC(=O)Nc2ccc(=O)n(C)c2)c(=O)c2ccc(C(F)(F)F)nc12 [Compound 16]
5 | > 20000 | 6770 | – | – | CCc1nn(CC(=O)Nc2ccc3nncn3c2)c(=O)c2ccc(OC)nc12 [Compound 7]
6 | > 20000 | 170 | – | – | CC(C)c1nn(CC(=O)Nc2ccc3cn[nH]c3c2)c(=O)c2ccc(C(F)(F)F)nc12 [Compound 26, N-(1H-indazol-6-yl)-2-(8-isopropyl-5-oxo-2-(trifluoromethyl)pyrido[2,3-d]pyridazin-6(5H)-yl)acetamide]
7 | – | – | 5860 | 150 | CN(C)c1nn(CC(=O)Nc2ccc3nncn3n2)c(=O)c2ccc(C(F)(F)F)nc12 [Compound 22]
8 | 17000 | 120 | – | – | CC(C)c1nn(CC(=O)Nc2ccc3nncn3c2)c(=O)c2ccc(C(C)(F)F)nc12 [Compound 8]
9 | > 20000 | 390 | – | – | CC(C)c1nn(CC(=O)Nc2ccc3nccn3c2)c(=O)c2ccc(C(F)(F)F)nc12 [Compound 15]
10 | – | – | > 20000 | 340 | CN(C)c1nn(CC(=O)Nc2ccc3nncn3n2)c(=O)c2ccc(C(F)(F)F)nc12 [Compound 23]
11 | 17800 | 780 | – | – | CCc1ccc2c(=O)n(CC(=O)N[C@H]3C[C@@](C)(O)C3)nc(CC)c2n1 [Compound 6]
12 | > 20000 | 1490 | – | – | CCc1nn(CC(=O)Nc2ccncn2)c(=O)c2ccc(C(C)C)nc12 [Compound 2]
13 | – | – | > 20000 | 750 | CN(C)c1nn(CC(=O)Nc2ccc3nncn3n2)c(=O)c2ccc(C(C)(F)F)nc12 [Compound 25]
14 | > 20000 | 100 | – | – | CC(C)c1nn(CC(=O)Nc2ccc3nncn3c2)c(=O)c2ccc(C(F)(F)F)nc12 [Compound 13]
15 | 10600 | 520 | – | – | CCc1nn(CC(=O)N[C@H]2C[C@@](C)(O)C2)c(=O)c2ccc(C(C)C)nc12 [Compound 1]
16 | – | 370 | – | – | CCc1nn(CC(=O)N[C@H]2C[C@@](C)(O)C2)c(=O)c2ccc(C3CC3)nc12 [Compound 4]
17 | 12900 | 320 | – | – | CCc1nn(CC(=O)Nc2ccc3nncn3c2)c(=O)c2ccc(C3CC3)nc12 [Compound 5]
18 | 16600 | 480 | – | – | Cc1cc(NC(=O)Cn2nc(C(C)C)c3nc(C(F)(F)F)ccc3c2=O)ccn1 [Compound 17]
19 | 11800 | 60 | – | – | CC(C)c1nn(CC(=O)Nc2cncnc2)c(=O)c2ccc(C(F)(F)F)nc12 [Compound 19]
20 | > 20000 | 300 | – | – | CN(C)c1nn(CC(=O)Nc2ccc3nncn3c2)c(=O)c2ccc(C(C)(F)F)nc12 [Compound 10]
21 | 12600 | 410 | – | – | CC(C)c1nn(CC(=O)Nc2ccnnc2)c(=O)c2ccc(C(F)(F)F)nc12 [Compound 18]
22 | > 20000 | 520 | – | – | CC(C)c1nn(CC(=O)Nc2ccc3cnn(C(=O)OC(C)(C)C)c3c2)c(=O)c2ccc(C(F)(F)F)nc12 [Compound 11, tert-butyl 6-(2-(8-isopropyl-5-oxo-2-(trifluoromethyl)pyrido[2,3-d]pyridazin-6(5H)-yl)acetamido)-1H-indazole-1-carboxylate]
23 | > 20000 | – | – | 300 | CN(C)c1nn(CC(=O)Nc2ccc3nncn3n2)c(=O)c2ccc(C(C)(F)F)nc12 [Compound 24]
24 | 2870 | 70 | – | – | CC(C)c1nn(CC(=O)Nc2ccc3nncn3n2)c(=O)c2ccc(C(C)(F)F)nc12 [Compound 21]
25 | > 20000 | 2930 | – | – | CC(C)c1nn(CC(=O)Nc2ccc3nncn3n2)c(=O)c2ccc(C(F)(F)F)nc12 [Compound 20, N-([1,2,4]triazolo[4,3-b]pyridazin-6-yl)-2-(8-isopropyl-5-oxo-2-(trifluoromethyl)pyrido[2,3-d]pyridazin-6(5H)-yl)acetamide]
26 | > 20000 | 4490 | – | – | CCc1nn(CC(=O)Nc2ccncn2)c(=O)c2ccc(C3CC3)nc12 [Compound 3]
